Experimental data as given in patent US20150141381A1, “TETRACYCLINE COMPOUNDS HAVING TARGET THERAPEUTIC ACTIVITIES” (Paratek Pharmaceuticals, Inc., priority 2001, published 2015).
Where two headings read alike, the source gives them in different places.

Columns and labels:
S. aureus RN450 = assay: In Vitro Anti-Bacterial Activity Assay (MIC), gram positive; type: cell-based; conditions: Staphylococcus aureus, RN450, 18 h, read-out: Antibiotic Activity Gram + (MIC)
E. coli mL308 225 = assay: In Vitro Anti-Bacterial Activity Assay (MIC), gram negative; type: cell-based; conditions: Escherichia coli, ML308225, 18 h, read-out: Antibiotic Activity Gram − (MIC)

CNCOc1ccc(-c2ccc(O)c3c2C[C@H]2C[C@H]4[C@H](N(C)C)C(O)=C(C(N)=O)C(=O)[C@@]4(O)C(O)=C2C3=O)cc1 was tested. Which MIC (S. aureus RN450; gram positive bacteria) did it give?
The MIC was under 4 µg/mL.

And the MIC (E. coli mL308 225; gram negative bacteria)?
Its MIC is under 4 µg/mL.

Which results are given for CC(=O)c1cc(C(C)(C)C)c(O)c2c1C[C@H]1C[C@H]3[C@H](N(C)C)C(O)=C(C(N)=O)C(=O)[C@@]3(O)C(O)=C1C2=O?
MIC (S. aureus RN450; gram positive bacteria): < 4 µg/mL; MIC (E. coli mL308 225; gram negative bacteria): < 4 µg/mL

CN(C)c1cc(CCC2(O)CCCC2)c(O)c2c1C[C@H]1C[C@H]3[C@H](N(C)C)C(O)=C(C(N)=O)C(=O)[C@@]3(O)C(O)=C1C2=O was tested. Which MIC (S. aureus RN450; gram positive bacteria) did it give?
The MIC was over 4 µg/mL.

What about the MIC (E. coli mL308 225; gram negative bacteria) of the same compound?
The MIC was over 4 µg/mL.

Which results are given for C[C@H]1c2c(-c3ccccc3)cc(-c3ccccc3)c(O)c2C(=O)C2=C(O)[C@]3(O)C(=O)C(C(N)=O)=C(O)[C@@H](N(C)C)[C@@H]3[C@@H](O)[C@@H]21?
MIC (S. aureus RN450; gram positive bacteria): < 4 µg/mL; MIC (E. coli mL308 225; gram negative bacteria): < 4 µg/mL

Which results are given for CO/N=C/c1ccc(OC)c(-c2ccc(O)c3c2C[C@H]2C[C@H]4[C@H](N(C)C)C(O)=C(C(N)=O)C(=O)[C@@]4(O)C(O)=C2C3=O)c1?
MIC (S. aureus RN450; gram positive bacteria): < 4 µg/mL; MIC (E. coli mL308 225; gram negative bacteria): < 4 µg/mL

C=C(Cl)c1cc(C(C)(C)C)c(O)c2c1C[C@H]1C[C@H]3[C@H](N(C)C)C(O)=C(C(N)=O)C(=O)[C@@]3(O)C(O)=C1C2=O was tested. Which MIC (S. aureus RN450; gram positive bacteria) did it give?
The MIC was under 4 µg/mL.

And the MIC (E. coli mL308 225; gram negative bacteria)?
The MIC was under 4 µg/mL.

Which MIC (S. aureus RN450; gram positive bacteria) does the source give for CN(C)[C@@H]1C(O)=C(C(N)=O)C(=O)[C@@]2(O)C(O)=C3C(=O)c4c(O)ccc(-c5ccc(F)c(F)c5)c4C[C@H]3C[C@@H]12 here?
Its MIC is under 4 µg/mL.

What about the MIC (E. coli mL308 225; gram negative bacteria) of the same compound?
Its MIC is under 4 µg/mL.

Which MIC (S. aureus RN450; gram positive bacteria) does the source give for C[C@H]1c2ccc(-c3cc4ccccc4s3)c(O)c2C(=O)C2=C(O)[C@]3(O)C(=O)C(C(N)=O)=C(O)[C@@H](N(C)C)[C@@H]3[C@@H](O)[C@@H]21 here?
Its MIC is under 4 µg/mL.

And the MIC (E. coli mL308 225; gram negative bacteria)?
Its MIC is under 4 µg/mL.

For CC(=O)c1ccc(-c2ccc3c(c2O)C(=O)C2=C(O)[C@]4(O)C(=O)C(C(N)=O)=C(O)[C@@H](N(C)C)[C@@H]4[C@@H](O)[C@@H]2[C@H]3C)cc1, which MIC (S. aureus RN450; gram positive bacteria) is on record?
The MIC was under 4 µg/mL.

And the MIC (E. coli mL308 225; gram negative bacteria)?
The MIC was under 4 µg/mL.

Which MIC (S. aureus RN450; gram positive bacteria) does the source give for COC(=O)C(CO)NC(=O)c1cccc(-c2ccc(O)c3c2C[C@H]2C[C@H]4[C@H](N(C)C)C(O)=C(C(N)=O)C(=O)[C@@]4(O)C(O)=C2C3=O)c1 (stereo partly drawn) here?
The MIC was under 4 µg/mL.

And the MIC (E. coli mL308 225; gram negative bacteria)?
Its MIC is over 4 µg/mL.

How did the MIC (S. aureus RN450; gram positive bacteria) turn out when CC(=O)CCC(=O)Nc1ccc2c(c1O)C(=O)C1=C(O)[C@]3(O)C(=O)C(C(N)=O)=C(O)[C@@H](N(C)C)[C@@H]3C[C@@H]1C2 was run?
The MIC was over 4 µg/mL.

What about the MIC (E. coli mL308 225; gram negative bacteria) of the same compound?
Its MIC is over 4 µg/mL.

Which results are given for CONC(=O)c1cccc(-c2ccc(O)c3c2C[C@H]2C[C@H]4[C@H](N(C)C)C(O)=C(C(N)=O)C(=O)[C@@]4(O)C(O)=C2C3=O)c1?
MIC (S. aureus RN450; gram positive bacteria): < 4 µg/mL; MIC (E. coli mL308 225; gram negative bacteria): > 4 µg/mL

How did the MIC (S. aureus RN450; gram positive bacteria) turn out when CCc1cc(N)c(O)c2c1C[C@H]1C[C@H]3[C@H](N(C)C)C(O)=C(C(N)=O)C(=O)[C@@]3(O)C(O)=C1C2=O was run?
Its MIC is under 4 µg/mL.

And the MIC (E. coli mL308 225; gram negative bacteria)?
Its MIC is under 4 µg/mL.

CC(=O)Nc1ccc2c(c1O)C(=O)C1=C(O)[C@]3(O)C(=O)C(C(N)=O)=C(O)[C@@H](N(C)C)[C@@H]3C[C@@H]1C2 was tested. Which MIC (S. aureus RN450; gram positive bacteria) did it give?
The MIC was under 4 µg/mL.

And the MIC (E. coli mL308 225; gram negative bacteria)?
The MIC was over 4 µg/mL.

CN(C)[C@@H]1C(O)=C(C(N)=O)C(=O)[C@@]2(O)C(O)=C3C(=O)c4c(O)ccc(CNC(=O)c5cc(O)ncn5)c4C[C@H]3C[C@@H]12 was tested. Which MIC (S. aureus RN450; gram positive bacteria) did it give?
Its MIC is under 4 µg/mL.

What about the MIC (E. coli mL308 225; gram negative bacteria) of the same compound?
Its MIC is over 4 µg/mL.

What does the source list for CN1CCC(Nc2ccc3c(c2O)C(=O)C2=C(O)[C@]4(O)C(=O)C(C(N)=O)=C(O)[C@@H](N(C)C)[C@@H]4C[C@@H]2C3)CC1?
MIC (S. aureus RN450; gram positive bacteria): < 4 µg/mL; MIC (E. coli mL308 225; gram negative bacteria): > 4 µg/mL

CN(C)[C@@H]1C(O)=C(C(N)=O)C(=O)[C@@]2(O)C(O)=C3C(=O)c4c(O)ccc(CNC(=O)c5ccccn5)c4C[C@H]3C[C@@H]12 was tested. Which MIC (S. aureus RN450; gram positive bacteria) did it give?
The MIC was under 4 µg/mL.

And the MIC (E. coli mL308 225; gram negative bacteria)?
Its MIC is over 4 µg/mL.

Which results are given for CN(C)[C@@H]1C(O)=C(C(N)=O)C(=O)[C@@]2(O)C(O)=C3C(=O)c4c(O)ccc(CNC(=O)c5cnoc5)c4C[C@H]3C[C@@H]12?
MIC (S. aureus RN450; gram positive bacteria): < 4 µg/mL; MIC (E. coli mL308 225; gram negative bacteria): > 4 µg/mL

Which results are given for CC(NNC(N)=O)c1ccc(O)c2c1C[C@H]1C[C@H]3[C@H](N(C)C)C(O)=C(C(N)=O)C(=O)[C@@]3(O)C(O)=C1C2=O (stereo partly drawn)?
MIC (S. aureus RN450; gram positive bacteria): < 4 µg/mL; MIC (E. coli mL308 225; gram negative bacteria): > 4 µg/mL

How did the MIC (S. aureus RN450; gram positive bacteria) turn out when CN(C)[C@@H]1C(O)=C(C(N)=O)C(=O)[C@@]2(O)C(O)=C3C(=O)c4c(O)c(CNC(=O)C5CC5)cc(-c5ccc(C(C)(C)C)cc5)c4C[C@H]3C[C@@H]12 was run?
Its MIC is under 4 µg/mL.

What about the MIC (E. coli mL308 225; gram negative bacteria) of the same compound?
Its MIC is under 4 µg/mL.

For CC(C)CN(Cc1ccc(O)c2c1C[C@H]1C[C@H]3[C@H](N(C)C)C(O)=C(C(N)=O)C(=O)[C@@]3(O)C(O)=C1C2=O)CC(C)C, which MIC (S. aureus RN450; gram positive bacteria) is on record?
Its MIC is under 4 µg/mL.

And the MIC (E. coli mL308 225; gram negative bacteria)?
The MIC was under 4 µg/mL.

CN(C)[C@@H]1C(O)=C(C(N)=O)C(=O)[C@@]2(O)C(O)=C3C(=O)c4c(O)ccc(C(=O)O)c4C[C@H]3C[C@@H]12 was tested. Which MIC (S. aureus RN450; gram positive bacteria) did it give?
Its MIC is over 4 µg/mL.

What about the MIC (E. coli mL308 225; gram negative bacteria) of the same compound?
Its MIC is over 4 µg/mL.

CC(CF)N(C)Cc1cc(N(C)C)c2c(c1O)C(=O)C1=C(O)[C@]3(O)C(=O)C(C(N)=O)=C(O)[C@@H](N(C)C)[C@@H]3C[C@@H]1C2 (stereo partly drawn) was tested. Which MIC (S. aureus RN450) did it give?
Its MIC is under 4 µg/mL.

And the MIC (E. coli mL308 225)?
The MIC was over 4 µg/mL.

Which MIC (S. aureus RN450) does the source give for CNC(=O)Oc1ccc(-c2ccc(O)c3c2C[C@H]2C[C@H]4[C@H](N(C)C)C(O)=C(C(N)=O)C(=O)[C@@]4(O)C(O)=C2C3=O)cc1 here?
The MIC was under 4 µg/mL.

What about the MIC (E. coli mL308 225) of the same compound?
The MIC was under 4 µg/mL.
